{"source": "patent US20030022792A1", "about": "“HERBICIDAL COMPOSITIONS FOR TOLERANT OR RESISTANT CEREAL CROPS” (priority 1998, published 2003)", "format_in_all_cases": "in vivo", "key": {"Lolium multiflorum": {"tested_on": "Lolium multiflorum", "test": "Field trial with cereal (wheat), herbicidal action", "conditions": "for Herbicidal action (%) against Lolium multiflorum: scoring 27 days after application", "description": "(§1) Transgenic cereal plants with a resistance to one or more herbicides (A) together with typical weed plants were grown in the open on 2×5 m plots under natural field conditions; alternatively, weed infestation occurred naturally when the cereal plants were grown.\n(§2) […] The damage to, and the development of, all aerial parts of the plants was recorded. Scoring was done on the basis of a percentage sale (100% action=all plants destroyed; 50% action=50% of the plants and green parts of the plants destroyed; 0% action=no recognizable effect=like control plot. The mean of the score values of in each case 4 plots was calculated."}, "Ambrosia maritima": {"tested_on": "Ambrosia maritima", "test": "Field trial with cereal (wheat), herbicidal action", "conditions": "application at start of stocking, scoring 11 days after application", "description": "as §1, §2"}, "Lamium purpureum": {"tested_on": "Lamium purpureum", "test": "Field trial with cereal (wheat), herbicidal action", "conditions": "application at 4-leaf stage, scoring 28 days after application", "description": "as §1\n(§3) 2, 4, 6 and 8 weeks after the application, the herbicidal activity of the active substances or active substance mixtures was scored visually with reference to the treated plots in comparison to untreated control plots. The damage to, and the development of, all aerial parts of the plants was recorded. Scoring was done on the basis of a percentage sale (100% action=all plants destroyed; 50% action=50% of the plants and green parts of the plants destroyed; 0% action=no recognizable effect=like control plot. The mean of the score values of in each case 4 plots was calculated."}, "Galium aparine": {"tested_on": "Galium aparine", "test": "Field trial with cereal (wheat), herbicidal action", "conditions": "application at 4-leaf stage, scoring 28 days after application", "description": "as §1, §3"}, "Alopecurus myosuroides": {"tested_on": "Alopecurus myosuroides", "test": "Field trial with cereals (wheat), herbicidal action", "conditions": "application at start of stocking, scoring 3 weeks after application", "description": "as §1, §2"}, "Digitaria Sanguinalis": {"tested_on": "Digitaria Sanguinalis", "test": "Field trial with cereals (wheat), herbicidal action", "conditions": "application at start of stocking, scoring 3 weeks after application", "description": "as §1, §2"}, "[1]": {"conditions": "Lolium multiflorum, read-out: Herbicidal action (%) against Lolium multiflorum"}}}
{"compound": "CP(=O)(O)CCC(N)C(=O)O", "note": "(centres unmarked) [(A1.2), glufosinate-ammonium]", "values": [{"measurement": "pest or weed control at 200 g/ha", "setting": "Lolium multiflorum; [1]", "value": 0, "unit": "%"}, {"measurement": "pest or weed control at 330 g/ha", "setting": "Lolium multiflorum; [1]", "value": 15, "unit": "%"}, {"measurement": "pest or weed control at 500 g/ha", "setting": "Lolium multiflorum; [1]", "value": 78, "unit": "%"}, {"measurement": "Herbicidal action (%) against Ambrosia maritima", "setting": "Ambrosia maritima; 200 g of a.s./ha", "value": 58, "unit": "%"}, {"measurement": "Herbicidal action (%) against Ambrosia maritima", "setting": "Ambrosia maritima; 400 g of a.s./ha", "value": 100, "unit": "%"}, {"measurement": "Herbicidal action (%) against Ambrosia maritima", "setting": "Ambrosia maritima; 600 g of a.s./ha", "value": 100, "unit": "%"}, {"measurement": "Herbicidal action (%) against Lamium purpureum", "setting": "Lamium purpureum; 200 g of a.s./ha", "value": 8, "unit": "%"}, {"measurement": "Herbicidal action (%) against Lamium purpureum", "setting": "Lamium purpureum; 330 g of a.s./ha", "value": 35, "unit": "%"}, {"measurement": "Herbicidal action (%) against Galium aparine", "setting": "Galium aparine; 100 g of a.s./ha", "value": 0, "unit": "%"}, {"measurement": "Herbicidal action (%) against Galium aparine", "setting": "Galium aparine; 200 g of a.s./ha", "value": 0, "unit": "%"}, {"measurement": "Herbicidal action (%) against Galium aparine", "setting": "Galium aparine; 300 g of a.s./ha", "value": 0, "unit": "%"}, {"measurement": "Herbicidal action (%) against Alopecurus myosuroides", "setting": "Alopecurus myosuroides; 200 g of a.s./ha", "value": 55, "unit": "%"}, {"measurement": "Herbicidal action (%) against Alopecurus myosuroides", "setting": "Alopecurus myosuroides; 400 g of a.s./ha", "value": 83, "unit": "%"}, {"measurement": "Herbicidal action (%) against Alopecurus myosuroides", "setting": "Alopecurus myosuroides; 600 g of a.s./ha", "value": 93, "unit": "%"}, {"measurement": "Herbicidal action (%) against Digitaria Sanguinalis", "setting": "Digitaria Sanguinalis; 200 g of a.s./ha", "value": 45, "unit": "%"}, {"measurement": "Herbicidal action (%) against Digitaria Sanguinalis", "setting": "Digitaria Sanguinalis; 400 g of a.s./ha", "value": 90, "unit": "%"}, {"measurement": "Herbicidal action (%) against Digitaria Sanguinalis", "setting": "Digitaria Sanguinalis; 600 g of a.s./ha", "value": 99, "unit": "%"}]}
{"compound": "CCc1cnc(C2=NC(C)(C(C)C)C(=O)N2)c(C(=O)O)c1", "note": "(centres unmarked) [(A3.2), imazethapyr]", "values": [{"measurement": "pest or weed control at 70 g/ha", "setting": "Lolium multiflorum; Lolium multiflorum, wheat field trial, 70 g of a.s./ha, application at 3-leaf stage, scoring after application, read-out: Herbicidal action (%) against Lolium multiflorum", "value": 0, "unit": "%"}]}
{"compound": "CC(C)c1ccc(NC(=O)N(C)C)cc1", "note": "[(B1.1.1), isoproturon]", "values": [{"measurement": "pest or weed control at 1500 g/ha", "setting": "Lolium multiflorum; Lolium multiflorum, wheat field trial, 1500 g of a.s./ha, application at 3-leaf stage, scoring after application, read-out: Herbicidal action (%) against Lolium multiflorum", "value": 55, "unit": "%"}]}
{"compound": "CC(C)N(C(=O)COc1nnc(C(F)(F)F)s1)c1ccc(F)cc1", "note": "[(B1.1.3), fluthiamide]", "values": [{"measurement": "pest or weed control at 180 g/ha", "setting": "Lolium multiflorum; Lolium multiflorum, wheat field trial, 180 g of a.s./ha, application at 3-leaf stage, scoring after application, read-out: Herbicidal action (%) against Lolium multiflorum", "value": 25, "unit": "%"}]}
{"compound": "CCC(CC)Nc1c([N+](=O)[O-])cc(C)c(C)c1[N+](=O)[O-]", "note": "[(B1.1.5), pendimethalin]", "values": [{"measurement": "Herbicidal action (%) against Lamium purpureum", "setting": "Lamium purpureum; 960 g of a.s./ha", "value": 75, "unit": "%"}]}
{"compound": "C#CCOC(=O)[C@@H](C)Oc1ccc(Oc2ncc(Cl)cc2F)cc1", "note": "[(B1.2.2), clodinafop-propargyl]", "values": [{"measurement": "pest or weed control at 50 g/ha", "setting": "Lolium multiflorum; Lolium multiflorum, wheat field trial, 50 g of a.s./ha, application at 3-leaf stage, scoring after application, read-out: Herbicidal action (%) against Lolium multiflorum", "value": 73, "unit": "%"}]}
{"compound": "COC(=O)C(C)Oc1ccc(Oc2ccc(Cl)cc2Cl)cc1", "note": "(centres unmarked) [(B1.2.3), diclofop-methyl]", "values": [{"measurement": "Herbicidal action (%) against Lolium multiflorum", "setting": "Lolium multiflorum; wheat field trial, 500 g of a.s./ha, application at 3-leaf stage", "value": 60, "unit": "%"}, {"measurement": "Herbicidal action (%) against Lolium multiflorum", "setting": "Lolium multiflorum; wheat field trial, 750 g of a.s./ha, application at 3-leaf stage", "value": 83, "unit": "%"}]}
{"compound": "COc1cc(OC)nc(NC(=O)NS(=O)(=O)c2nc(C(F)(F)F)ccc2C(=O)O)n1", "note": "[(B1.2.6), flupyrsulfuron]", "values": [{"measurement": "pest or weed control at 7.5 g/ha", "setting": "Lolium multiflorum; [1]", "value": 25, "unit": "%"}]}
{"compound": "COC(=O)c1ccccc1S(=O)(=O)NC(=O)Nc1nc(C)nc(OC)n1", "note": "[(B2.1), metsulfuron-methyl]", "values": [{"measurement": "Herbicidal action (%) against Lamium purpureum", "setting": "Lamium purpureum; 3 g of a.s./ha", "value": 75, "unit": "%"}]}
{"compound": "COC(=O)c1ccc(NS(C)(=O)=O)cc1S(=O)(=O)NC(=O)Nc1nc(OC)cc(OC)n1", "note": "[(B2.3), methyl 4-methylsulfonylamino-2-(4,6-dimethoxypyrimidin-2-ylcarbamoylsulfamoyl)benzoate]", "values": [{"measurement": "pest or weed control at 5 g/ha", "setting": "Lolium multiflorum; Lolium multiflorum, wheat field trial, 5 g of a.s./ha, application at 3-leaf stage, scoring after application, read-out: Herbicidal action (%) against Lolium multiflorum", "value": 65, "unit": "%"}]}
{"compound": "CCS(=O)(=O)c1nc2ccccn2c1S(=O)(=O)NC(=O)Nc1nc(OC)cc(OC)n1", "note": "[(B2.6), sulfosulfuron]", "values": [{"measurement": "pest or weed control at 20 g/ha", "setting": "Lolium multiflorum; Lolium multiflorum, wheat field trial, 20 g of a.s./ha, application at 3-leaf stage, scoring after application, read-out: Herbicidal action (%) against Lolium multiflorum", "value": 35, "unit": "%"}]}
{"compound": "COC(=O)c1ccccc1S(=O)(=O)NC(=O)N(C)c1nc(C)nc(OC)n1", "note": "[(B4.1.1), tribenuron-methyl]", "values": [{"measurement": "Herbicidal action (%) against Lamium purpureum", "setting": "Lamium purpureum; 15 g of a.s./ha", "value": 68, "unit": "%"}]}
{"compound": "COc1cc(OC)nc(NC(=O)NS(=O)(=O)N(C)S(C)(=O)=O)n1", "note": "[(B4.1.2), amidosulfuron]", "values": [{"measurement": "Herbicidal action (%) against Galium aparine", "setting": "Galium aparine; 20 g of a.s./ha", "value": 75, "unit": "%"}]}
{"compound": "CCOC(=O)/C(Cl)=C/c1cc(N2C(=O)C3=C(CCCC3)C2=O)ccc1Cl", "note": "[(B4.1.6), cinidon-ethyl]", "values": [{"measurement": "Herbicidal action (%) against Galium aparine", "setting": "Galium aparine; 35 g of a.s./ha", "value": 65, "unit": "%"}]}
{"compound": "Cc1cc(Cl)ccc1O[C@@H](C)C(=O)O", "note": "[(B4.2.2), CMPP-P]", "values": [{"measurement": "Herbicidal action (%) against Galium aparine", "setting": "Galium aparine; 750 g of a.s./ha", "value": 73, "unit": "%"}]}
{"compound": "Cc1cc(Cl)ccc1OCC(=O)O", "note": "[(B4.2.4), MCPA]", "values": [{"measurement": "Herbicidal action (%) against Ambrosia maritima", "setting": "Ambrosia maritima; 500 g of a.s./ha", "value": 0, "unit": "%"}]}
{"compound": "Nc1c(Cl)c(F)nc(OCC(=O)O)c1Cl", "note": "[(B4.2.5), fluroxypyr]", "values": [{"measurement": "Herbicidal action (%) against Galium aparine", "setting": "Galium aparine; 120 g of a.s./ha", "value": 75, "unit": "%"}]}
{"compound": "N#Cc1cc(Br)c(O)c(Br)c1", "note": "[(B4.3.1), bromoxynil]", "values": [{"measurement": "Herbicidal action (%) against Lamium purpureum", "setting": "Lamium purpureum; 180 g of a.s./ha", "value": 55, "unit": "%"}, {"measurement": "Herbicidal action (%) against Lamium purpureum", "setting": "Lamium purpureum; 360 g of a.s./ha", "value": 83, "unit": "%"}]}
{"compound": "CCOC(=O)C(Cl)Cc1cc(-n2nc(C)n(C(F)F)c2=O)c(F)cc1Cl", "note": "(centres unmarked) [(B4.4.1), carfentrazone-ethyl]", "values": [{"measurement": "Herbicidal action (%) against Galium aparine", "setting": "Galium aparine; 10 g of a.s./ha", "value": 45, "unit": "%"}, {"measurement": "Herbicidal action (%) against Galium aparine", "setting": "Galium aparine; 20 g of a.s./ha", "value": 55, "unit": "%"}]}
{"compound": "CCOC(=O)COc1cc(-c2nn(C)c(OC(F)F)c2Cl)c(F)cc1Cl", "note": "[(B4.4.2), pyraflufen-ethyl]", "values": [{"measurement": "Herbicidal action (%) against Alopecurus myosuroides", "setting": "Alopecurus myosuroides; 10 g of a.s./ha", "value": 0, "unit": "%"}, {"measurement": "Herbicidal action (%) against Digitaria Sanguinalis", "setting": "Digitaria Sanguinalis; 10 g of a.s./ha", "value": 0, "unit": "%"}]}
{"compound": "O=C(Nc1ccc(F)cc1F)c1cccnc1Oc1cccc(C(F)(F)F)c1", "note": "[Diflu, diflufenican]", "values": [{"measurement": "pest or weed control at 150 g/ha", "setting": "Lolium multiflorum; Lolium multiflorum, wheat field trial, 150 g of a.s./ha, application at 3-leaf stage, scoring after application, read-out: Herbicidal action (%) against Lolium multiflorum", "value": 35, "unit": "%"}]}
